{
  "source": "patent US20130096160A1",
  "about": "“ARYLTHIAZOLYL PIPERIDINES AND RELATED COMPOUNDS AS MODULATORS OF SURVIVAL MOTOR NEURON (SMN) PROTEIN PRODUCTION” (Secretary, Department of Health and Human Services, priority 2010, published 2013)",
  "key": {"[1]": {"tested_on": "human SMN protein", "assay": "Western blot of SMN protein in SMA patient fibroblasts (3813)", "assay_type": "cell-based", "conditions": "SMA patient cells (3813), 0.1-10 μM, FIG. 2", "description": "Type I spinal muscular atrophy (SMA)-affected human primary fibroblasts (#GM03813) and carrier parents (#GM03814, parent and #GM03815, […]) are obtained live with low passage number from Coriell Cell Repositories. […] For detection of SMN protein in patient fibroblasts, 8,000 cells per cm^2 are plated 24 hours prior to drug addition. Fresh media and compound are added every 24 hours. After 72 hours, cells are harvested, washed with cold PBS, and lysed. Samples are subjected to polyacrylamide gel electrophoresis (PAGE). It is determined that 10 μg total protein per lane is within the linear range for immunoblot detection of SMN and alpha-tubulin. Western blots of the gel are probed for SMN with the 4B7 mouse monoclonal antibody (from the lab of Christian Lorson). A goat anti-mouse antibody (Santa Cruz Biotechnology/#sc-2005) conjugated to horseradish peroxidase (HRP) is used as the secondary antibody. Quantification of protein is performed by detecting chemiluminescence with a Fujifilm LAS-4000 Multifunctional Imaging System. […] We incubated a fibroblast cell line from a type I SMA patient (3813 cell line) with different doses of analogues and assessed the SMN protein level by quantitative western blotting (FIG. 4). We observed that analogue 8 m at concentration of 37 nanomolar increased the SMN protein level by 2-3 fold. […] This could be due with the intrinsic mechanism of action or to other causes, such us concentration dependent compound solubility."}, "[2]": {"tested_on": "CaCo-2 cells", "assay": "in vitro", "assay_type": "in vitro ADME", "description": "CaCo-2 cells grown in tissue culture flasks are trypsinized, suspended in medium, and the suspensions are applied to wells of a collagen-coated BioCoat Cell Environment in 24-well format (BD Biosciences) at 24,500 cells per well. The cells are allowed to grow and differentiate for three weeks, feeding at 2-day intervals.\nFor Apical to Basolateral (A->B) permeability, the test agent is added at 50 μM to the apical (A) side and amount of permeation is determined on the basolateral (B) side; for Basolateral to Apical (B>A) permeability, the test agent is added at 50 μM to the B side and the amount of permeation is determine on the A side. The A-side buffer contains 100 μM Lucifer yellow dye, in Transport Buffer (1.98 g/L glucose in 10 mM HEPES, 1× Hank's Balanced Salt Solution) pH 6.5, and the B-side buffer is Transport Buffer, pH 7.4. CaCo-2 cells are incubated with these buffers for 2 h., and the receiver side buffer is removed for analysis by liquid chromatography-mass spectrometry (LC/MS/MS).\nAdditionally, several control compounds are tested in the identical assay.\nTo verify that CaCo-2 cell monolayers are properly formed, aliquots of the cell buffers are analyzed by fluorescence to determine the transport of the impermeable dye Lucifer Yellow.\nData are expressed as permeability (Papp): […]\nwhere dQ/dt is the rate of permeation, C0 is the initial concentration of test agent, and A is the area of the monolayer.\nIn bidirectional permeability studies, the asymmetry index (AI) or efflux ratio is also calculated:\nAn AI>1 indicated a potential substrate for PGP or other active transporters.\nSamples are analyzed by LC/MS/MS using either an Agilent 6410 mass spectrometer coupled with an Agilent 1200 high performance liquid chromatography (HPLC) and a CTC PAL chilled autosampler, all controlled by MassHunter software (Agilent), or an ABI2000 mass spectrometer coupled with an Agilent 1100 HPLC and a CTC PAL chilled autosampler, all controlled by Analyst software (ABI). After separation on a C18 reverse phase HPLC column (Agilent, Waters, or equivalent) using an acetonitrile-water gradient system, peaks are analyzed by mass spectrometry (MS) using electrospray ionization (ESI) in multiple reaction monitoring (MRM) mode.\nThe signal is optimized for each compound by ESI positive or negative ionization mode. A MS2 selected ion monitoring (SIM) scan is used to optimize the precursor ion and a product ion analysis is used to identify the best fragment for analysis and to optimize the collision energy."}},
  "data": [
    {"smiles": "NC(=O)C1CCN(c2nc(-c3ccc(Br)cc3)cs2)CC1", "note": "[MLS000698854]", "values": [
      {"measurement": "SMN protein by Western blot (in words)", "setting": "[1]", "result": "concentration-dependent increase in SMN protein"},
      {"measurement": "Caco-2 permeability (in words)", "setting": "[2]", "result": "highly permeable"},
      {"measurement": "Pgp substrate (in words)", "setting": "[2]", "result": "no indication of being a Pgp substrate"},
      {"measurement": "mean A->B Papp", "setting": "[2]", "result": "32.6 10^−6 cm s^−1"},
      {"measurement": "mean B->A Papp", "setting": "[2]", "result": "12.0 10^−6 cm s^−1"}
    ]}
  ]
}
